Measurements from US20090162351A1, “Transdiscal administration of inhibitors of p38 MAP kinase” (DePuy Spine, Inc., priority 2007, published 2009).
Entries after “also recorded” stand apart in the source; their conditions may differ.

Key:
[1] = system: bovine chondrocyte pellets / ARC tissues stimulated with IL-1β; assay: Chondrocyte pellet / ARC culture model: GAG degradation assay; format: cell-based; details: for concentration as low as which proteoglycan degradation was inhibited: chondrocyte pellets, 10 ng/ml IL-1β, five days; for effect on IL-1β-stimulated GAG degradation/release (in words): chondrocyte pellet / ARC model; for GAG Release, Pellet Assay (in words): Table 3B
Description: A chondrocyte pellet culture model was developed for in vitro high throughput screening of therapeutic compounds for inhibition of IL-1β-stimulated matrix degradation. The chondrocyte pellet culture model can be used to detect various potential therapeutic compounds effective in blocking different processes caused by IL-1β stimulation. For example, IL-1β stimulation results in increased glycosaminoglycan (GAG) degradation, prostaglandin E2 (PGE2) synthesis and total nitrite/nitrate production. Compounds with different mechanisms of action may inhibit the increase of one or two or all three of these parameters. For this reason, screening by, for example, measuring only GAG release would be limited to detection of a specific class of inhibitors and may not detect compounds with diversified mechanisms of function which may be involved in inhibition of the IL-1 stimulated inflammatory process. The development of the chondrocyte pellet culture assay system in a 96-well plate made possible large-scale screening of potential therapeutic compounds with different mechanisms of action.
Calf articular cartilage was obtained from the knee joints of eight to twelve month old animals and was processed within twenty-four hours after sacrifice. After removal of muscle and ligament, the cartilage was kept moist using phosphate buffer solution (PBS) to prevent tissue dehydration, and was aseptically peeled off from subchondral bone with a scalpel, and the cartilage pieces were further minced into smaller pieces (˜0.3-0.5×˜0.2-0.5 cm cubes). […] Chondrocytes were then enzymatically isolated from the tissue by incubation for overnight at 37° C. with gentle agitation in 0.2% collagenase in Dulbecco's modified eagle media (DMEM). After removal of tissue debris by filtration through cell strainer and the residual collagenase by 3× wash in PBS, cells were finally resuspended at a density of 2.5×10^6 cells/ml in chondrocyte medium. A 1 ml aliquot of the cell suspension was dispensed into either a 15 ml Falcon centrifuge tube or a 96 deep-well plate and centrifuged at 2000×g for five minutes. The chondrocyte pellets were incubated at 37° C. in a humidified atmosphere of 5% CO2 for two to three weeks with a medium change every other day.
As an alternative to using calf articular cartilage, a commercial Aliginate Recovered Chondrocytes (ARC) system was also used (Articular Engineering, LLC (Northbrook, Ill.)). Use of the commercial system cut down on labor and time in producing chondrocyte pellet. This system produced cartilaginous tissue in vitro using bovine chondrocytes. The first step consisted of culturing chondrocytes in alginate under conditions optimal for the formation of a cell-associated matrix (CM). The second step allowed these cells with their CM, after recovery, to rapidly form and become integrated into a solid mass of cartilage on a porous insert within two weeks.
This tissue is rich in cells surrounded by a cell-associated matrix that is degraded rapidly when the cells are exposed to IL-1. ARC tissues in 3 mm punches at delivery were first dispensed into a 96 deep-well plate, one punch per well, for compound treatment. The subsequent procedures were the same as those used for the chondrocyte pellets.
Chondrocyte pellets were washed once with 1 ml of Chondrocyte Stimulation Medium and equilibrated in the same medium at room temperature for fifteen to thirty minutes. Compounds were dissolved in H2O, Ethanol or dimethyl sulfoxide (DMSO) (10^−2 M) according to suppliers' instructions and further diluted with Chondrocyte Stimulation Medium to the required concentrations. DMSO concentrations in the culture media should not exceed 1%; this concentration of DMSO has no effect on cartilage proteoglycan metabolism in response to cytokines.
The pellets were first treated with compounds at desired concentrations at 37° C. for one hour and then incubated for three to five days in the absence or presence of 10 ng/ml of IL-1β. […]

[2] = system: injured bovine articular cartilage explants in inflammatory medium; assay: Drop tower model: GAG degradation in injured cartilage explants; format: cell-based; set-up: inhibition of GAG release vs no treatment explant: dose or concentration left out as unconfirmed; details: for Inhibition of GAG degradation (in words): Table 4, injured cartilage explants, inflammatory conditions; for efficacy in inhibiting GAG release (in words): drop tower model; for Inhibition of GAG degradation: at 0.1-1 μM
Description: In order to assess cartilage breakdown by inflammatory mediators and the effect of antagonists on those mediators, a cartilage impact model (the “drop tower model”) was established using a drop tower device to apply a peak compressive stress to a cartilage sample of about 20-30 MPa over an area of about 11-15 mm^2. Advantages of this model included its clinical relevance due to its potential to mimic several key parameters of osteoarthritis such as inflammatory cell mediators (by co-culturing with inflammatory cells), and induction of trauma to create the cartilage damage.
In the “drop tower design model” cartilage explants were first injured and then cultured in inflammatory medium to mimic the progression of joint impact trauma linked to cartilage degeneration and osteoarthritis. The approach of the model is to artificially produce cellular damage without gross structural alterations, and to determine how the cells respond to such an insult over the ensuing days when treated with or without potential therapeutic agents.
The device comprises a vertical rail that guides a sliding weight from 0.1 kg to 3 kg directly onto a force transducer which is situated at the bottom of the device. A sphere-shaped 2 mm indenter resting on a specimen is located at the bottom of the vertical rail. The indenter is held by a stop screw. The specimen is rigidly attached to a tissue holder underneath the indenter, to avoid side movements, the specimen is rigidly attached to the tissue holder. In this manner, the force transducer transduces a force indirectly onto the specimen. Adjusting the weight of a mass and height from which the mass drops varies the magnitude of the intended impact. For example, a weight mass (e.g., […]) held by a weight holder can be released from a height of e.g., 36 cm and dropped onto the force transducer.
Samples for compound evaluation were tested using either of two different methods to induce inflammatory conditions. One method utilized media conditioned from peripheral blood mononuclear cells (PBMCs) stimulated with LPS (“+LPS”) or non-inflammatory media without LPS (“−LPS”). Another method utilized the absence or presence of a cocktail of cytokines.
In the first method, bovine or human PBMCs were freshly prepared using Ficoll gradient by Lampire Biological Laboratories, Inc. PBMCs in RPMI w/10% FCS at delivery were spun down at 1500 rpm for twenty minutes and the cell pellet was washed twice with 1×PBS to wash off the residual Ficoll. The cells were then resuspended at a density of 1×10^6/ml in RPMI supplemented with 10% FCS, 1× Antibiotics-Antimycotics. The suspension was divided into two aliquots. One aliquot was stimulated with 10 μg/ml of LPS and the other was not stimulated. Both aliquots were then incubated at 37° C., 5% CO2 for twenty-four to seventy-two hours. The conditioned media with or without LPS stimulation are collected, aliquoted, and stored in −80° C. for a maximum of three months. Each conditioned medium was assessed for levels of pro-inflammatory cytokines to ensure their secretion from PBMC. A representative cytokine, IL-6, was assayed by ELISA using a Human IL-6 Quantikine kit and it was shown that the LPS-stimulated medium had at least 10 ng/ml of IL-6, while IL-6 was undetectable in the unstimulated medium.
In the second method, the explants were cultured at 37° C., 5% CO2 either in stimulated or non-stimulated conditioned medium as described above or in defined medium containing DMEM supplemented with 1% FCS, 1× insulin-transferrin-sodium selenite media supplement and Antibiotics-Antimycotics in the presence or absence of a cocktail of cytokines containing 10 ng/ml of IL-1β, 100 ng/ml of TNFα and 5 ng/ml of IFN-γ. The compounds were solubilized in H2O, Ethanol or DMSO (10^−2 M) according to suppliers' instructions and further diluted with either conditioned medium stimulated with or without LPS to the required concentrations. DMSO concentrations in the culture media never exceeded 1%. […]

[3] = Bos taurus, Chondrocyte, read-out: GAG Release (inhibition), Pellet Assay
[4] = Bos taurus, injured cartilage explants

CC(=O)Oc1cccc2c1C(=O)c1c(OC(C)=O)cc(C(=O)O)cc1C2=O [Diacerein, reference compound]
concentration as low as which proteoglycan degradation was inhibited [1]: 0.054 µM
inhibitory effect for GAG vs lower concentrations (in words) ([1]; diacerein at 5.4 μM, rhein at 3.5 μM): weaker inhibitory effect
inhibition at 54 µM ([2]; Bos taurus, at 54 μM, injured cartilage explants): 100%
proteoglycan degradation in injured cartilage induced by inflammatory mediators (in words) ([2]; at high dosage, LPS-stimulated PBMC conditioned medium, five days): completely inhibited

OCCC#Cc1nc(-c2ccc(F)cc2)c(-c2ccncc2)n1CCCc1ccccc1 [JNJ 3026582 (RWJ 67657), 4-[4-(4-fluorophenyl)-1-(3-phenylpropyl)-5-(4-pyridinyl)-1H-imidazol-2-yl]-3-butyn-1-ol]
inhibition at 10 µM [1, 3]: ~90%
effect on IL-1β-stimulated GAG degradation/release (in words) [1]: significantly inhibited; also recorded: significant effect
Inhibition of GAG degradation (in words) [2]: little
efficacy in inhibiting GAG release (in words) [2]: little efficacy

C[C@H](Nc1nccc(-c2c(-c3ccc(F)cc3)nc3nc(N)ccn23)n1)c1ccccc1 [JNJ 7583979 (RWJ 351958)]
inhibition at 1 µM ([1]; Bos taurus, Chondrocyte, at 1 μM, read-out: GAG Release (inhibition), Pellet Assay): 10%
inhibition at 10 µM [1, 3]: 64%
effect on IL-1β-stimulated GAG degradation/release (in words) [1]: significantly inhibited; also recorded: significant effect
Inhibition of GAG degradation (in words) [2]: little
efficacy in inhibiting GAG release (in words) [2]: little efficacy

CC(=O)N1CCN(c2c(-c3ccncc3)c(-c3ccc(F)cc3)c(C#N)n2C)CC1 [JNJ 17089540 (RWJ 669307)]
GAG Release, Pellet Assay (in words) [1]: No effect
effect on IL-1β-stimulated GAG degradation/release (in words) [1]: little effect

CO[C@H]1C[C@@H]2CC[C@@H](C)[C@@](O)(O2)C(=O)C(=O)N2CCCC[C@H]2C(=O)O[C@H]([C@H](C)C[C@@H]2CC[C@@H](O)[C@H](OC)C2)CC(=O)[C@H](C)/C=C(\C)[C@@H](O)[C@@H](OC)C(=O)[C@H](C)C[C@H](C)/C=C/C=C/C=C/1C [Rapamycin, reference compound]
inhibition at 10 µM [1, 3]: 50%
Inhibition of GAG degradation ([2]; injured cartilage explants): 100% inh at 0.1-1 μM
inhibition of GAG release vs no treatment explant ([2]; five days): ~84%

O=C(O)c1cc(O)c2c(c1)C(=O)c1cccc(O)c1C2=O [Rhein, reference compound]
concentration as low as which proteoglycan degradation was inhibited [1]: 0.035 µM
inhibition at 35 µM ([2]; Bos taurus, at 35 μM, injured cartilage explants): 100%

C[C@@H]1CN(Cc2ccc(F)cc2)[C@@H](C)CN1C(=O)c1cc2cc(C(=O)C(=O)N(C)C)[nH]c2cc1Cl [SCIO-282 (SD 282)]
GAG Release, Pellet Assay (in words) [1]: No effect
effect on IL-1β-stimulated GAG degradation/release (in words) [1]: little effect

C[C@@H]1CN(Cc2ccc(F)cc2)[C@@H](C)CN1C(=O)c1cc2c(C(=O)C(=O)N(C)C)cn(C)c2cc1Cl [SCIO-469 (SD 469)]
GAG Release, Pellet Assay (in words) [1]: No effect
effect on IL-1β-stimulated GAG degradation/release (in words) [1]: no effect

CC(C(=O)O)c1ccc(C(=O)c2cccs2)cc1 (stereo not drawn) [Suprofen, reference compound]
GAG Release, Pellet Assay (in words) [1]: No effect
Inhibition of GAG degradation ([2]; injured cartilage explants): 100% inh at 0.1-1 μM

COc1ccc(-n2nc(CCC(=O)N(C)O)cc2-c2ccc(Cl)cc2)cc1 [Tepoxalin, reference compound]
inhibition at 10 µM [1, 3]: 15%
inhibition at 10 µM [2, 4]: 100%

Cc1ccc(C(=O)c2ccc(CC(=O)O)n2C)cc1 [Tolmetin, reference compound]
GAG Release, Pellet Assay (in words) [1]: No effect
inhibition at 10 µM [2, 4]: 60%
